System: MV-4-11 cells
Assay: Gene expression microarray analysis (Affymetrix PrimeView) and GSEA
Type: cell-based, human
Parameters: RFU PODN (11730768_x_at) / Fold change /veh PODN (11730768_x_at) / RFU LINC00158 (11744669_a_at) / Fold change /veh LINC00158 (11744669_a_at) / RFU DUSP10 (11751237_a_at) / Fold change /veh DUSP10 (11751237_a_at) / RFU ID3 (11757404_x_at) / Fold change /veh ID3 (11757404_x_at) / RFU PLEKHG5 (11737974_s_at) / Fold change /veh PLEKHG5 (11737974_s_at) / RFU LRRC4B (11730491_at) / Fold change /veh LRRC4B (11730491_at) / RFU GIMAP4 (11747438_a_at) / Fold change /veh GIMAP4 (11747438_a_at) / RFU KRT8 (11758183_x_at) / Fold change /veh KRT8 (11758183_x_at) / RFU CNN1 (11734310_a_at) / Fold change /veh CNN1 (11734310_a_at) / RFU VPS37D (11726825_at) / Fold change /veh VPS37D (11726825_at) / RFU C10orf10 (11716522_x_at) / Fold change /veh C10orf10 (11716522_x_at) / RFU KIR2DL2 /// KIR2DL4 /// KIR2DL5A /// KIR2DL5B /// KIR2DS1 /// KIR2DS2 /// KIR2DS3 /// KIR2DS4 /// KIR3DL3 /// KIR3DL3 /// KIR3DS1 (11738374_at) / Fold change /veh KIR2DL2 /// KIR2DL4 /// KIR2DL5A /// KIR2DL5B /// KIR2DS1 /// KIR2DS2 /// KIR2DS3 /// KIR2DS4 /// KIR3DL3 /// KIR3DL3 /// KIR3DS1 (11738374_at) / RFU C1QL1 (11718748_at) / Fold change /veh C1QL1 (11718748_at) / RFU TMPRSS4 (11747572_a_at) / Fold change /veh TMPRSS4 (11747572_a_at) / RFU HAMP (11756126_x_at) / Fold change /veh HAMP (11756126_x_at) / RFU RNFT2 (11725882_a_at) / Fold change /veh RNFT2 (11725882_a_at) / RFU NR4A2 (11747474_a_at) / Fold change /veh NR4A2 (11747474_a_at) / RFU ABCC12 (11746883_a_at) / Fold change /veh ABCC12 (11746883_a_at) / RFU TMEM136 (11760407_x_at) / Fold change /veh TMEM136 (11760407_x_at) / RFU CLDN22 /// WWC2 (11732394_at) / Fold change /veh CLDN22 /// WWC2 (11732394_at) / RFU HLA-DPB1 (11760878_x_at) / Fold change /veh HLA-DPB1 (11760878_x_at) / RFU SPINT1 (11716480_a_at) / Fold change /veh SPINT1 (11716480_a_at) / RFU GAP43 (11754022_s_at) / Fold change /veh GAP43 (11754022_s_at) / RFU A4GNT (11735810_at) / Fold change /veh A4GNT (11735810_at) / RFU PRB3 (11715151_x_at) / Fold change /veh PRB3 (11715151_x_at) / RFU TUBB4B (11761932_at) / Fold change /veh TUBB4B (11761932_at) / RFU CAPN14 (11732068_a_at) / Fold change /veh CAPN14 (11732068_a_at) / RFU TMCC2 (11721928_a_at) / Fold change /veh TMCC2 (11721928_a_at) / RFU IRGQ (11745062_a_at) / Fold change /veh IRGQ (11745062_a_at) / RFU FAM174B (11720279_a_at) / Fold change /veh FAM174B (11720279_a_at) / RFU TMPRSS4 (11748680_a_at) / Fold change /veh TMPRSS4 (11748680_a_at) / RFU FAM212B (11763350_a_at) / Fold change /veh FAM212B (11763350_a_at) / RFU PLEKHG5 (11743358_a_at) / Fold change /veh PLEKHG5 (11743358_a_at) / RFU ZSCAN30 (11745921_a_at) / Fold change /veh ZSCAN30 (11745921_a_at) / RFU CMKLR1 (11741424_a_at) / Fold change /veh CMKLR1 (11741424_a_at) / RFU LOC101060620 /// MAPK8IP1 (11723275_at) / Fold change /veh LOC101060620 /// MAPK8IP1 (11723275_at) / RFU SPTSSB (11747773_x_at) / Fold change /veh SPTSSB (11747773_x_at) / RFU PRSS12 (11739890_at) / Fold change /veh PRSS12 (11739890_at) / RFU BIN1 (11741810_x_at) / Fold change /veh BIN1 (11741810_x_at) / RFU WNT11 (11732464_a_at) / Fold change /veh WNT11 (11732464_a_at) / RFU C10orf10 (11716521_a_at) / Fold change /veh C10orf10 (11716521_a_at) / RFU C5orf56 (11738089_at) / Fold change /veh C5orf56 (11738089_at) / RFU CYB561 (11721691_x_at) / Fold change /veh CYB561 (11721691_x_at) / RFU ANKRD19P (11752326_a_at) / Fold change /veh ANKRD19P (11752326_a_at) / RFU OR2T12 /// OR2T33 /// OR2T8 (11738714_s_at) / Fold change /veh OR2T12 /// OR2T33 /// OR2T8 (11738714_s_at) / RFU VCAN (11748164_a_at) / Fold change /veh VCAN (11748164_a_at) / RFU JSRP1 (11732532_at) / Fold change /veh JSRP1 (11732532_at) / RFU KRTAP10-11 (11738290_x_at) / Fold change /veh KRTAP10-11 (11738290_x_at) / RFU MYO3A (11730013_a_at) / Fold change /veh MYO3A (11730013_a_at) / RFU EBF3 (11725865_a_at) / Fold change /veh EBF3 (11725865_a_at) / RFU CAMK2N1 (11719241_x_at) / Fold change /veh CAMK2N1 (11719241_x_at) / RFU C5orf56 (11738088_a_at) / Fold change /veh C5orf56 (11738088_a_at) / RFU OLFML3 (11715873_a_at) / Fold change /veh OLFML3 (11715873_a_at) / RFU LOC100653217 /// NTM (11731650_a_at) / Fold change /veh LOC100653217 /// NTM (11731650_a_at) / RFU MAPK11 (11762145_a_at) / Fold change /veh MAPK11 (11762145_a_at) / RFU FIZ1 (11724087_x_at) / Fold change /veh FIZ1 (11724087_x_at) / RFU OASL (11726364_x_at) / Fold change /veh OASL (11726364_x_at) / RFU SOX15 (11748057_x_at) / Fold change /veh SOX15 (11748057_x_at) / RFU CD79A (11719716_a_at) / Fold change /veh CD79A (11719716_a_at) / RFU HIST1H1D (11736915_at) / Fold change /veh HIST1H1D (11736915_at) / RFU CASKIN2 (11723855_a_at) / Fold change /veh CASKIN2 (11723855_a_at) / RFU LOC730098 (11760151_x_at) / Fold change /veh LOC730098 (11760151_x_at) / RFU OR4N2 (11742367_at) / Fold change /veh OR4N2 (11742367_at) / RFU PRRT2 (11749266_a_at) / Fold change /veh PRRT2 (11749266_a_at) / RFU SNX32 (11753110_a_at) / Fold change /veh SNX32 (11753110_a_at) / RFU CDHR5 (11726645_a_at) / Fold change /veh CDHR5 (11726645_a_at) / RFU RCAN1 (11760418_a_at) / Fold change /veh RCAN1 (11760418_a_at) / RFU FAM167A (11723789_a_at) / Fold change /veh FAM167A (11723789_a_at) / RFU FAM26E (11764081_at) / Fold change /veh FAM26E (11764081_at) / RFU ISYNA1 (11749810_s_at) / Fold change /veh ISYNA1 (11749810_s_at) / RFU ACY1 (11761880_at) / Fold change /veh ACY1 (11761880_at) / RFU 11764098_at / Fold change /veh 11764098_at / RFU SAMD14 (11745864_x_at) / Fold change /veh SAMD14 (11745864_x_at) / RFU NPB (11741838_a_at) / Fold change /veh NPB (11741838_a_at) / RFU TMPRSS6 (11731388_a_at) / Fold change /veh TMPRSS6 (11731388_a_at) / RFU KRTAP10-2 (11738614_at) / Fold change /veh KRTAP10-2 (11738614_at) / RFU ARHGAP8 /// PRR5-ARHGAP8 (11727945_x_at) / Fold change /veh ARHGAP8 /// PRR5-ARHGAP8 (11727945_x_at) / RFU KRTAP5-7 /// NADSYN1 (11734609_at) / Fold change /veh KRTAP5-7 /// NADSYN1 (11734609_at) / RFU RASL12 (11751679_a_at) / Fold change /veh RASL12 (11751679_a_at) / RFU CDKN2B (11736163_a_at) / Fold change /veh CDKN2B (11736163_a_at) / RFU PRF1 (11729649_at) / Fold change /veh PRF1 (11729649_at) / RFU, ZNF638 /// ZNF638-IT1 / Fold change vs veh, ZNF638 /// ZNF638-IT1 / RFU, PANK3 / Fold change vs veh, PANK3 / RFU, SH3YL1 / Fold change vs veh, SH3YL1 / RFU, ZEB2 / Fold change vs veh, ZEB2 / RFU, NRIP1 / Fold change vs veh, NRIP1 / RFU, PTTG1IP / Fold change vs veh, PTTG1IP / RFU, CAPN2 / Fold change vs veh, CAPN2 / RFU, MED14 / Fold change vs veh, MED14 / RFU, SNORA58 / Fold change vs veh, SNORA58 / RFU, C1orf63 / Fold change vs veh, C1orf63 / RFU, LRRFIP1 / Fold change vs veh, LRRFIP1 / RFU, NDUFAF7 / Fold change vs veh, NDUFAF7 / RFU, SLC12A2 / Fold change vs veh, SLC12A2 / RFU, IBTK / Fold change vs veh, IBTK / RFU, ESF1 / Fold change vs veh, ESF1 / Fold change vs veh, TMEM50B / RFU, TAOK1 / Fold change vs veh, TAOK1 / RFU, ACBD3 / Fold change vs veh, ACBD3 / RFU, TMA16 / Fold change vs veh, TMA16 / RFU, RWDD3 / Fold change vs veh, RWDD3 / RFU, BCAT1 / Fold change vs veh, BCAT1 / RFU, EDEM3 / Fold change vs veh, EDEM3 / RFU, TMEM33 / Fold change vs veh, TMEM33 / RFU, WDR75 / Fold change vs veh, WDR75 / RFU, AHCTF1 / Fold change vs veh, AHCTF1 / RFU, TFRC / Fold change vs veh, TFRC / RFU, ZDHHC17 / Fold change vs veh, ZDHHC17 / RFU, NOM1 / Fold change vs veh, NOM1 / RFU, ARL8B / Fold change vs veh, ARL8B / RFU, ZBTB11 / Fold change vs veh, ZBTB11 / RFU, TAMM41 / Fold change vs veh, TAMM41 / RFU, KIAA1704 /// LOC100996395 / Fold change vs veh, KIAA1704 /// LOC100996395 / RFU, ING1 / Fold change vs veh, ING1 / RFU, TRMT61B / Fold change vs veh, TRMT61B / RFU, FUBP3 / Fold change vs veh, FUBP3 / RFU, TP53 / Fold change vs veh, TP53 / RFU, TNKS2 / Fold change vs veh, TNKS2 / RFU, ZFP14 / Fold change vs veh, ZFP14 / RFU, ACTR2 / Fold change vs veh, ACTR2 / RFU, PPP3R1 / Fold change vs veh, PPP3R1 / RFU, PIK3R1 / Fold change vs veh, PIK3R1 / RFU, HNRNPA1 / Fold change vs veh, HNRNPA1 / RFU, RNF170 / Fold change vs veh, RNF170 / RFU, ZNF28 / Fold change vs veh, ZNF28 / RFU, RNGTT / Fold change vs veh, RNGTT / RFU, OGT / Fold change vs veh, OGT / RFU, BRD1 / Fold change vs veh, BRD1 / RFU, MARS / Fold change vs veh, MARS / RFU, ZNF655 / Fold change vs veh, ZNF655 / RFU, FAHD1 / Fold change vs veh, FAHD1 / RFU, BDP1 / Fold change vs veh, BDP1 / RFU, LRRCC1 / Fold change vs veh, LRRCC1 / RFU, ARID1A / Fold change vs veh, ARID1A / RFU, ZNF146 / Fold change vs veh, ZNF146 / RFU, ZNF330 / Fold change vs veh, ZNF330 / RFU, GPN3 / Fold change vs veh, GPN3 / RFU, C9orf123 / Fold change vs veh, C9orf123 / RFU, N4BP2L2 / Fold change vs veh, N4BP2L2 / RFU, ARFIP1 / Fold change vs veh, ARFIP1 / RFU, FAM179B / Fold change vs veh, FAM179B / RFU, BCL10 / Fold change vs veh, BCL10 / RFU, UHRF1BP1L / Fold change vs veh, UHRF1BP1L / RFU, BET1 / Fold change vs veh, BET1 / RFU, CNOT2 / Fold change vs veh, CNOT2 / RFU, ZNF268 / Fold change vs veh, ZNF268 / Fold change vs veh, ZNF507 / RFU, DGCR2 / Fold change vs veh, DGCR2 / RFU, WDSUB1 / Fold change vs veh, WDSUB1 / Fold change vs veh, HSP90B1 /// MIR3652 / RFU, ADSS / Fold change vs veh, ADSS / RFU, GK / Fold change vs veh, GK / RFU, ZNF148 / Fold change vs veh, ZNF148 / RFU, TAF9 / Fold change vs veh, TAF9 / RFU, SLC1A5 / Fold change vs veh, SLC1A5 / RFU, SLMO2 / Fold change vs veh, SLMO2 / RFU, ABCC4 / Fold change vs veh, ABCC4 / RFU, LOC101060439 /// RAP1B / Fold change vs veh, LOC101060439 /// RAP1B / RFU, RFX7 / Fold change vs veh, RFX7 / RFU, GTPBP10 / Fold change vs veh, GTPBP10 / RFU, CNEP1R1 / Fold change vs veh, CNEP1R1 / RFU, BIVM-ERCC5 /// ERCC5 / Fold change vs veh, BIVM-ERCC5 /// ERCC5 / RFU, ILF3 / Fold change vs veh, ILF3 / RFU 11762660_at / Fold change /veh 11762660_at / RFU VCAN (11757783_s_at) / Fold change /veh VCAN (11757783_s_at) / RFU DDX43 (11728927_at) / Fold change /veh DDX43 (11728927_at) / RFU KRT8 (11758188_x_at) / Fold change /veh KRT8 (11758188_x_at) / RFU NKD1 (11759106_at) / Fold change /veh NKD1 (11759106_at) / RFU SRD5A1 (11742802_a_at) / Fold change /veh SRD5A1 (11742802_a_at) / RFU TPSAB1 /// TPSB2 (11721975_s_at) / Fold change /veh TPSAB1 /// TPSB2 (11721975_s_at) / RFU GSTM3 (11746129_a_at) / Fold change /veh GSTM3 (11746129_a_at) / RFU IL23R (11737362_x_at) / Fold change /veh IL23R (11737362_x_at) / RFU TMEM51 (11727254_a_at) / Fold change /veh TMEM51 (11727254_a_at) / RFU PIWIL2 (11732686_x_at) / Fold change /veh PIWIL2 (11732686_x_at) / RFU ORM1 (11744905_x_at) / Fold change /veh ORM1 (11744905_x_at) / RFU CCDC152 (11743942_at) / Fold change /veh CCDC152 (11743942_at) / RFU ECM1 (11717891_a_at) / Fold change /veh ECM1 (11717891_a_at) / RFU IL23R (11748794_a_at) / Fold change /veh IL23R (11748794_a_at) / RFU TNFAIP8L3 (11732012_x_at) / Fold change /veh TNFAIP8L3 (11732012_x_at) / RFU MBOAT4 (11741988_at) / Fold change /veh MBOAT4 (11741988_at) / RFU 11764193_at / Fold change /veh 11764193_at / RFU TMEM53 (11763286_at) / Fold change /veh TMEM53 (11763286_at) / RFU MAGEB2 (11727129_at) / Fold change /veh MAGEB2 (11727129_at) / RFU TMEM200A (11744735_a_at) / Fold change /veh TMEM200A (11744735_a_at) / RFU CCDC152 (11751479_a_at) / Fold change /veh CCDC152 (11751479_a_at) / RFU FAM211A (11726209_a_at) / Fold change /veh FAM211A (11726209_a_at) / RFU RGS16 (11746705_a_at) / Fold change /veh RGS16 (11746705_a_at) / RFU VCAN (11755009_s_at) / Fold change /veh VCAN (11755009_s_at) / RFU RHOB (11743442_s_at) / Fold change /veh RHOB (11743442_s_at) / RFU RGS16 (11720943_a_at) / Fold change /veh RGS16 (11720943_a_at) / RFU RGS16 (11720944_at) / Fold change /veh RGS16 (11720944_at) / RFU, VPS4B / Fold change vs veh, VPS4B / RFU, CREB1 / Fold change vs veh, CREB1 / RFU, DNAJC13 / Fold change vs veh, DNAJC13 / RFU, GNAQ / Fold change vs veh, GNAQ / RFU, CDK5R1 / Fold change vs veh, CDK5R1 / RFU, ZRANB3 / Fold change vs veh, ZRANB3 / RFU, CUL4A / Fold change vs veh, CUL4A / RFU, CCNY / Fold change vs veh, CCNY / RFU, UFL1 / Fold change vs veh, UFL1 / RFU, COG3 / Fold change vs veh, COG3 / RFU, DIAPH2 / Fold change vs veh, DIAPH2 / RFU, SKA2 / Fold change vs veh, SKA2 / RFU, AFF3 / Fold change vs veh, AFF3 / RFU, LMF1 / Fold change vs veh, LMF1 / RFU, IPO11 / Fold change vs veh, IPO11 / RFU, DFFB / Fold change vs veh, DFFB / RFU, FOXP1 / Fold change vs veh, FOXP1 / RFU, CARD8 / Fold change vs veh, CARD8 / RFU, STRN3 / Fold change vs veh, STRN3 / RFU, ADK / Fold change vs veh, ADK / RFU, RASSF2 / Fold change vs veh, RASSF2 / RFU, WIPF1 / Fold change vs veh, WIPF1 / RFU, LARP1B / Fold change vs veh, LARP1B / RFU, RASA1 / Fold change vs veh, RASA1 / RFU, RB1 / Fold change vs veh, RB1 / RFU, PPFIA1 / Fold change vs veh, PPFIA1 / RFU, MAT2A / Fold change vs veh, MAT2A / RFU, CCT5 / Fold change vs veh, CCT5 / RFU, WDR92 / Fold change vs veh, WDR92 / RFU, CUX1 / Fold change vs veh, CUX1 / RFU, TTC7A / Fold change vs veh, TTC7A / RFU, TMEM135 / Fold change vs veh, TMEM135 / RFU, DEPTOR / Fold change vs veh, DEPTOR / RFU, CPM / Fold change vs veh, CPM / RFU, DNAJB6 / Fold change vs veh, DNAJB6 / RFU, CACNA2D3 / Fold change vs veh, CACNA2D3 / RFU, DTX4 / Fold change vs veh, DTX4 / RFU, TFCP2 / Fold change vs veh, TFCP2 / RFU, GMCL1 /// GMCL1P1 / Fold change vs veh, GMCL1 /// GMCL1P1 / RFU, AEBP2 / Fold change vs veh, AEBP2 / RFU, SNHG1 /// SNORD22 /// SNORD25 /// SNORD26 /// SNORD27 /// SNORD28 /// SNORD29 /// SNORD31 / Fold change vs veh, SNHG1 /// SNORD22 /// SNORD25 /// SNORD26 /// SNORD27 /// SNORD28 /// SNORD29 /// SNORD31 / Fold change (Aza/veh), C12orf56 (ProbeSet 11735607_a_at) / Fold change (ACY-1035/veh), C12orf56 (ProbeSet 11735607_a_at) / Fold change (Aza/veh), FGFR1OP (ProbeSet 11751329_s_at) / Fold change (ACY-1035/veh), FGFR1OP (ProbeSet 11751329_s_at) / Fold change (Aza/veh), VPS36 (ProbeSet 11739960_a_at) / Fold change (ACY-1035/veh), VPS36 (ProbeSet 11739960_a_at) / RFU SYPL1 (11715823_x_at) / Fold change /veh SYPL1 (11715823_x_at) / RFU IGFBP7 (11715501_s_at) / Fold change /veh IGFBP7 (11715501_s_at) / RFU REEP3 (11722064_at) / Fold change /veh REEP3 (11722064_at) / RFU IGLL1 (11728026_x_at) / Fold change /veh IGLL1 (11728026_x_at): dose or concentration left out as unconfirmed
Details: ProbeSet 11724763_s_at; LIST D

Compound: Nc1ccc(-c2cccs2)cc1NC(=O)c1ccc2c(c1)cc(C1CC1)n2CCN1CCOCC1 [ACY-1035]
- Fold change vs veh, DEPTOR: 0.84
